Data from patent publication US8729068B2, “Tetrahydrobenzothiophene compound” (Astellas Pharma Inc., priority 2010, dated 2014).

melting point: 186.8 °C
Structure (SMILES): O=C(O)c1ccc(CCc2ccc(NC(=O)c3c(NC(=O)c4cccc(S(=O)(=O)N(C5CC5)[C@H]5CC[C@@H](C(=O)O)CC5)c4)sc4c3CCCC4)cc2)cc1 [Example 5, 4-{2-[4-({[2-({3-[(cis-4-carboxycyclohexyl)(cyclopropyl)sulfamoyl]benzoyl}amino)-4,5,6,7-tetrahydro-1-benzothiophen-3-yl]carbonyl}amino)phenyl]ethyl}benzoic acid]
